Data from article PMC5483439, “The Effect of Pungent and Tingling Compounds from Piper nigrum L. on Background K^+ Currents” (Frontiers in Pharmacology, 2017).
Where two headings read alike, the source gives them in different places.

Key:
[1] = tested on: tongue surface; design: method as in Dawid et al., 2012; conditions: human, ref Dawid et al., 2012, cited from earlier work; for pungent threshold concentration / tingling threshold concentration: filter paper on tongue
[2] = molecular target: T1, hKCNK18 (Homo sapiens, UniProt Q7Z418); test: Two-electrode voltage clamp on Xenopus laevis oocytes expressing hKCNK18; format: cell-based; conditions: for effect on basal activity of hKCNK18: 1 mM
T1 construct: expressed in transfected cells; host or cells: Xenopus laevis oocytes injected with cRNA (plasmid pEXO, gift of Dr. P. Enyedi)
T1 sequence (Q7Z418 1-384): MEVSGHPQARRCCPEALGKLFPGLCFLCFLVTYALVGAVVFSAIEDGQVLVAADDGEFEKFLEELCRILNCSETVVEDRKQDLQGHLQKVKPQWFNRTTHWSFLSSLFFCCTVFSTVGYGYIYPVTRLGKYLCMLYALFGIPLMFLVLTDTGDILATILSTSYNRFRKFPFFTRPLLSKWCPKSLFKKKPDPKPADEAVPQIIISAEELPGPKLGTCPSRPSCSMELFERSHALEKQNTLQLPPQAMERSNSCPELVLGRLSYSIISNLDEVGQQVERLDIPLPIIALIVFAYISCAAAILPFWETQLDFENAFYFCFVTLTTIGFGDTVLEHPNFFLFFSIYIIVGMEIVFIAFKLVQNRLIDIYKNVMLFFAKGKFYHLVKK
Excerpt: (§1) Human KCNK3 (TASK-1, K2P3.1) cloned into the expression vector pIRES-CD8 was a gift from Dr. Fabrice Duprat (Institut National de la Santé et de la Recherche Médicale, Antipolis, France). Human KCNK18 (hTRESK, K2P18.1), cloned into the plasmid pEXO, was a gift from Dr. P. Enyedi (Semmelweis University, Budapest, Hungary). These plasmids were linearized with the restriction enzymes BamHI and XbaI, respectively, and then used as templates for in vitro transcription. Human KCNK9 (hTASK-3, K2P9.1) cloned into the expression vector pCR4-TOPO, was purchased from Imagenes (Berlin, Germany). The plasmid was linearized with the restriction enzyme SspI, to generate a linear cDNA template for in vitro transcription. mKCNK3 was isolated from mouse heart by standard procedures and inserted into pSGEM. mKCNK9 and mKCNK18 were kindly provided by Dr. D. Bayliss (University of Virginia, Charlottesville, VA, United States) and Prof. Dr. P. Enyedi (Semmelweis University, Budapest, Hungary). Both channels were subcloned into pSGEM. The pSGEM plasmids were subsequently linearized with the restriction enzyme PacI. The capped RNAs were synthesized in the presence of the capping analog m7G(5′)ppp(5′)G using the AmpliCap-T7 Message Maker kit (Epicentre, Madison, WI, United States). The cRNA was dissolved in nuclease-free water to obtain a final concentration of 100 ng/μL.
(§2) The expression in Xenopus laevis oocytes was essentially performed as previously described ([Beltrán et al., 2013]). Briefly, mature female Xenopus laevis frogs were anesthetized with 0.15% MS-222, and surgery was performed according to standard methods, where the extracted ovarian lobes were placed into Ca^2+-free Barth solution containing collagenase type II (Worthington Biochemical Corporation, Lakewood, NJ, United States) and kept for 90 min on a shaker at 40 rpm (room temperature). Healthy stage V and VI oocytes were selected for injection with cRNA coding for the proteins of interest. Thirty nanoliters of cRNA (100 ng/μL) of each channel were injected using a Microinjector Micro 4 ^TM (World Precision Instruments). […]

[3] = molecular target: T2, hKCNK9 (Homo sapiens, UniProt Q9NPC2); test: Two-electrode voltage clamp on Xenopus laevis oocytes expressing hKCNK9; format: cell-based; conditions: for effect on basal activity of hKCNK9: 1 mM
T2 construct: host or cells: Xenopus laevis oocytes injected with cRNA (plasmid pCR4-TOPO)
Excerpt: as §1
as §2, with “Instruments). After injection, the oocytes were kept in ND96 (96 mM NaCl; 2 mM KCl; 1.8 mM CaCl2; 1 mM MgCl2; 2.5 mM Sodium pyruvate; 10 mM, HEPES [4-(2-hydroxyethyl)-1-piperazineethanesulfonic acid), pH 7.4]. The measurements were performed 24 to 72 h after injection. The oocytes were placed in a 100 μL chamber that was perfused with frog Ringer’s solution (115 mM NaCl; 2.5 mM KCl; 1.8 mM CaCl2, and 10 mM HEPES, pH 7.2). The substances were dissolved in this solution before being manually applied to the oocytes using an automatic pipette (Research pro, Eppendorf, Germany). The application time was usually three ramps (approximately 10 s).” for “Instruments).”

[4] = molecular target: T3, hKCNK3 (Homo sapiens, UniProt O14649); test: Two-electrode voltage clamp on Xenopus laevis oocytes expressing hKCNK3; format: cell-based; conditions: for effect on basal activity of hKCNK3: 1 mM; for % of basal activity after saturating concentrations: hKCNK3 in Xenopus oocytes
T3 construct: expressed in transfected cells; host or cells: Xenopus laevis oocytes injected with cRNA (plasmid pIRES-CD8, gift of Dr. Fabrice Duprat)
Excerpt: as §1
The expression in Xenopus laevis oocytes was essentially performed as previously described ([Beltrán et al., 2013]). Briefly, mature female Xenopus laevis frogs were anesthetized with 0.15% MS-222, and surgery was performed according to standard methods, where the extracted ovarian lobes were placed into Ca^2+-free Barth solution containing collagenase type II (Worthington Biochemical Corporation, Lakewood, NJ, United States) and kept for 90 min on a shaker at 40 rpm (room temperature). Healthy stage V and VI oocytes were selected for injection with cRNA coding for the proteins of interest. Thirty nanoliters of cRNA (100 ng/μL) of each channel were injected using a Microinjector Micro 4 ^TM (World Precision Instruments). After injection, the oocytes were kept in ND96 (96 mM NaCl; 2 mM KCl; 1.8 mM CaCl2; 1 mM MgCl2; 2.5 mM Sodium pyruvate; 10 mM, HEPES [4-(2-hydroxyethyl)-1-piperazineethanesulfonic acid), pH 7.4]. The measurements were performed 24 to 72 h after injection. The oocytes were placed in a 100 μL chamber that was perfused with frog Ringer’s solution (115 mM NaCl; 2.5 mM KCl; 1.8 mM CaCl2, and 10 mM HEPES, pH 7.2). The substances were dissolved in this solution before being manually applied to the oocytes using an automatic pipette (Research pro, Eppendorf, Germany). The application time was usually three ramps (approximately 10 s). For recording, a Turbo Tec-03x (npi electronic GmbH, Tamm, Germany) amplifier was used, with an acquisition rate of 1000 Hz and a low pass filter of 20 Hz. Borosilicate glass capillaries were pulled with a Kopf vertical pipette puller. The pulled glass capillaries were filled with 3 M KCl.
A ramp series protocol was used to evaluate the activity of KCNK channels as previously described ([Beltrán et al., 2013]). Briefly, voltage ramps from –100 mV to + 50 mV ([…]) followed by a constant of +50 mV (150 ms) were applied at a time interval of 2 s. […] This value was then normalized to the average obtained from three ramps prior to the application. In most cases, the currents elicited by this voltage-clamp ramp series protocol were more than ten times larger than the background currents observed in uninjected oocytes, while also presenting the described outward rectification under physiological concentrations of intracellular and extracellular K^+ ([Goldstein et al., 2001]; [Enyedi and Czirják, 2010]). Due to these characteristics, no leakage subtraction was considered necessary. Oocytes not fulfilling these characteristics were not considered for data analysis. […]

[5] = tested on: background current of mouse trigeminal neurons; test: Whole-cell patch clamp on cultured mouse trigeminal neurons; format: cell-based; conditions: 100 μM XE-991, Na+/Ca2+-free solution
Experimental: Trigeminal ganglia neurons were isolated from Swiss CD-1 mice (Charles River Laboratories, Sulzfeld, Germany). All experiments involving animals were carried out in accordance with the European Union Community Council’s guidelines and approved by the competent state office of the Federal Land of Northrhine Westphalia (file number 87-51.04.2010.A180). At postnatal day 2–5, the mice were sacrificed by decapitation. The brain was removed, and both trigeminal ganglia were excised. The ganglia were washed in PBS+/+ (Invitrogen, Karlsruhe, Germany) and collected in Leibovitz Medium (L15, Invitrogen) on ice. The ganglia were transferred to Dulbecco’s modified essential medium (DMEM) containing 0.025% collagenase (type IA, Sigma–Aldrich). The minced ganglia were incubated for 45 min in a humidified atmosphere (37°C, 95% humidity, 6% CO2) before trituration. The cell suspension was centrifuged at 1000 rpm for 4 min at room temperature and the pellet was resuspended in F-12 medium (Invitrogen; 31331-D-MEM/F-12, GlutaMax^TM) supplemented with 10% fetal bovine serum (FBS^TM; Invitrogen), 200 U/mL penicillin and 200 U/mL streptomycin. The cell suspension (50 μL) was then plated on poly L-lysine (0.01%) coated glass coverslips (30 mm, Sarstedt, Nümbrecht, Germany), placed in cell culture dishes (35 mm) and kept in a humidified atmosphere (37°C, 95% humidity, 6% CO2) for 1 h. Subsequently, F-12 medium (2 mL) supplemented with FBS (10%), 200 U/mL penicillin and 200 U/mL streptomycin was added to each dish. The cells were kept in an incubator (37°C, 95% humidity, 6% CO2) until use.
The recordings were performed using the whole-cell configuration of the patch-clamp technique. The cells were maintained in an extracellular recording solution containing 140 mM NaCl, 5 mM KCl, 2 mM MgCl2, 2 mM CaCl2, 10 mM HEPES and 10 mM glucose, pH 7.4. The Ca^2+ and Na^+- free extracellular solution contained: 140 mM NMDG-Cl, 5 mM KCl, 2 mM MgCl2, 5 mM EGTA, 10 mM HEPES, pH 7.4. The patch electrodes were pulled from borosilicate glass (1.2 mm OD × 1.17 mm ID; Harvard apparatus, Edenbridge, Kent, United Kingdom) and fire polished to 2.5–4 MΩ tip resistance using a horizontal pipette puller (Zeitz Instruments, Munich, Germany) to obtain a patch of approximately 1–2 μm diameter. The pipette solution contained 140 mM KCl, 1 mM MgCl2, and 10 mM HEPES, pH 7.4. All recordings were performed at room temperature with an EPC7 amplifier (List-Medical Electronic, Darmstadt, Germany). The capacity and serial resistance were adjusted manually. The substances were applied via a custom-made manifold superfusion device. […] The data were acquired using Pulse software (HEKA, Lambrecht, Germany) and analyzed with PulseFit (HEKA, Lambrecht, Germany). Unless otherwise stated, the data are expressed as the mean ± SEM. […]

[6] = Xenopus oocytes, current at +50 mV normalized to pre-application, read-out: IC50 on hKCNK3

T2 sequence (Q9NPC2 whole entry): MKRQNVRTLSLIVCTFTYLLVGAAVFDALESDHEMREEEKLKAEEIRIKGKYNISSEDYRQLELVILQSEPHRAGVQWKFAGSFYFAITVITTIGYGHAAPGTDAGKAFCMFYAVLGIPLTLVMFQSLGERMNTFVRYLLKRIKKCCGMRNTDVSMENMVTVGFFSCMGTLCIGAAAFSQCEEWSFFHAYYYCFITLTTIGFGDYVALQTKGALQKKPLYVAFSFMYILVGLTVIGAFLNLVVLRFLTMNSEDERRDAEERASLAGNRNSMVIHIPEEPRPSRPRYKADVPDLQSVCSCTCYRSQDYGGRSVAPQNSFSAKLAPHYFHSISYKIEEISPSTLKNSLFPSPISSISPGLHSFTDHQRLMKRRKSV
T3 sequence (O14649 whole entry): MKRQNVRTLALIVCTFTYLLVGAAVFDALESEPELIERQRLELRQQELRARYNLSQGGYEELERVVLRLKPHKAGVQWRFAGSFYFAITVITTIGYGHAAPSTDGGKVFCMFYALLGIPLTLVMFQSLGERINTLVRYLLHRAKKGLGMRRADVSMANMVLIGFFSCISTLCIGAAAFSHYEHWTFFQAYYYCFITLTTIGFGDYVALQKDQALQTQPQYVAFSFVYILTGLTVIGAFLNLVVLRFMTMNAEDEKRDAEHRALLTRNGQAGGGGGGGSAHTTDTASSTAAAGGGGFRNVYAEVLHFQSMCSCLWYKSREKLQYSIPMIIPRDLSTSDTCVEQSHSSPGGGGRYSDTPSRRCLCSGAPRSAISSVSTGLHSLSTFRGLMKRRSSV

Row | effect on basal activity of hKCNK3 ([4]; Xenopus oocytes) | IC50 [4, 6] [µM] | % of basal activity after saturating concentrations [4] [%] | Molecule | pungent threshold concentration [1] [nmol/cm^2] | other results
1 | – | – | – | CCCCCCCCCCCCC/C=C/C=C/C(=O)NCC(C)C [7c, (2E,4E)-N-isobutyl-octadeca-2,4-dienamide] | 763.0 | –
2 | decrease in their basal activity | 113 ± 79.5 | 50 ± 14 | CC(C)CNC(=O)/C=C/C=C/c1ccc2c(c1)OCO2 [1c, piperlonguminine] | 10.4 | effect on basal activity of hKCNK18 [2]: decrease in their basal activity; effect on basal activity of hKCNK9 [3]: decrease in their basal activity; threshold for oral pungency [1]: 0.01 μmol/cm^2
3 | – | – | – | O=C1c2ccccc2C(Cc2ccncc2)(Cc2ccncc2)c2ccccc21 [XE-991, reference compound] | – | effect of pre-incubation on background current [5]: marked decrease
4 | most pronounced effect | 19 ± 2.1 | 27 ± 3 | 1-(octadeca-2E,4E,13/12Z-trienoyl)-pyrrolidine [5b/6b] | – | effect on basal activity of hKCNK9 [3]: inhibited; IC50 ([3]; N = 3–6): 236 ± 56 µM
5 | – | 70 ± 32.8 | 57 ± 7 | (2E,4E,13/12Z)-N-isobutyl-octadeca-2,4,12/13-trienamide [5c/6c] | – | –
6 | decrease in their basal activity | 180 ± 39 | 55 ± 5 | O=C(/C=C/C=C/c1ccc2c(c1)OCO2)N1CCCC1 [1b, piperyline] | 5.1 | effect on basal activity of hKCNK18 [2]: decrease in their basal activity; IC50 ([2]; N = 3–6): 252 ± 55 µM; effect on basal activity of hKCNK9 [3]: decrease in their basal activity; threshold for oral pungency [1]: 0.005 μmol/cm^2
7 | – | – | – | CCCCC/C=C\CCCCCCCC/C=C/C=C/C(=O)NCC(C)C [9c, (2E,4E,14Z)-N-isobutyl-eicosa-2,4,14-trienamide] | 741.2 | tingling threshold concentration [1]: 1482.3 nmol/cm^2
8 | – | 44 ± 6.7 | 39 ± 1 | O=C(/C=C/C=C/CC/C=C/c1ccc2c(c1)OCO2)N1CCCCC1 [3a, dehydropipernonaline] | 152.1 | –
9 | – | – | – | O=C(/C=C/C=C/C=C/c1ccc2c(c1)OCO2)N1CCCCC1 [2a, piperettine] | 5.2 | –
10 | – | – | – | CCCCC/C=C\CCCCCC/C=C/C=C/C(=O)NCC(C)C [6c, (2E,4E,12Z)-N-isobutyl-octadeca-2,4,12-trienamide] | 540.5 | tingling threshold concentration [1]: 2162.1 nmol/cm^2
11 | – | – | – | CCCC/C=C\CCCCCCC/C=C/C=C/C(=O)NCC(C)C [5c, (2E,4E,13Z)-N-isobutyl-octadeca-2,4,13-trienamide] | 540.5 | tingling threshold concentration [1]: 2162.1 nmol/cm^2
12 | – | – | – | CCCC/C=C\CCCCCCCCC/C=C/C=C/C(=O)NCC(C)C [8c, (2E,4E,15Z)-N-isobutyl-eicosa-2,4,15-trienamide] | 741.2 | tingling threshold concentration [1]: 1482.3 nmol/cm^2
13 | most pronounced effect | 32 ± 11 | 51 ± 5 | O=C(/C=C/C=C/CCCCCC/C=C/c1ccc2c(c1)OCO2)N1CCCC1 [4b, brachyamide A] | – | –
14 | most pronounced effect | 49.6 ± 8.5 | 35 ± 3 | O=C(/C=C/C=C/CC/C=C/c1ccc2c(c1)OCO2)N1CCCC1 [3b, 1-[1-oxo-9(3,4-methylenedioxyphenyl)-2E,4E,8E-nonatrienyl]-pyrrolidine] | – | –

Row | Molecule | effect on basal activity of hKCNK3 ([4]; Xenopus oocytes) | IC50 [4, 6] [µM] | % of basal activity after saturating concentrations [4] [%] | pungent threshold concentration [1] [nmol/cm^2] | other results
15 | CC(C)CNC(=O)/C=C/C=C/CCCCCC/C=C/c1ccc2c(c1)OCO2 [4c, guineensine] | – | – | 48 ± 2.8 | 810.1 | IC50 [4]: 90.9 ± 12.7 µM
